Results on 8 compounds are retold here after patent US20200087248A1, “Fluoroallylamine Derivative And Use Thereof” (SICHUAN KELUN-BIOTECH BIOPHARMACEUTICAL CO., LTD., priority 2017, published 2020).

One may read the IC50 as the point on the concentration scale where inhibition reaches its midpoint.

The target in series [1] is T1, VAP-1 (Homo sapiens, UniProt Q16853).
T1 construct: purchased R&D Systems
T1 sequence (Q16853 1-763): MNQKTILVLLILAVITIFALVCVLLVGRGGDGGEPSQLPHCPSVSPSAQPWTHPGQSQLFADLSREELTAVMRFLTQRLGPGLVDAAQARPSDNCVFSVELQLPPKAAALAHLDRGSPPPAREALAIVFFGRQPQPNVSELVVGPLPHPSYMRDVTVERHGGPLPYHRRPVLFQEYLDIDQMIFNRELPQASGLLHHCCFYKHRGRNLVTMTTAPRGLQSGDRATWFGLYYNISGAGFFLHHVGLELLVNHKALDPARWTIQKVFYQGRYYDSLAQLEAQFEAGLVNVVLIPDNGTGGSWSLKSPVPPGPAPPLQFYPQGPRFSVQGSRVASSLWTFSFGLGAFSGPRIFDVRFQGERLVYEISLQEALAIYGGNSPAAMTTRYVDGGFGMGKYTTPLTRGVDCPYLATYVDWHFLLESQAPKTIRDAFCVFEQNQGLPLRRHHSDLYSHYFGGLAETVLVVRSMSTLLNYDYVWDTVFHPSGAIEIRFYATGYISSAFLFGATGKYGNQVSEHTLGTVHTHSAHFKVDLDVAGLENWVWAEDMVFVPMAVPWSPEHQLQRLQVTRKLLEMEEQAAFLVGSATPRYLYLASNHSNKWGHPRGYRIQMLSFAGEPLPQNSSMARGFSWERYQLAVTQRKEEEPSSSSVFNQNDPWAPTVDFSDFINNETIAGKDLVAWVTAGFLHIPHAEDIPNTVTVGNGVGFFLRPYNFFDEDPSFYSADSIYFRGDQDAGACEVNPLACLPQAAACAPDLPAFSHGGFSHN
The experiment in a line: Inhibition of the enzymatic activity of VAP-1 in vitro (Amplex Red). In kind it is biochemical. Conditions: VAP-1 protein about 20 nM, 10 min pre-incubation, benzylamine substrate; read-out: IC50, inhibition against the enzymatic activity of VAP-1. The procedure:
Inhibition Experiment Against the Enzymatic Activity of VAP-1(Vascular Adhesion Protein 1) in vitro
Test kit: Amplex® Red Monoamine Oxidase Assay, Manufacturer: ThermoFisher
Reaction buffer solution: 50 mM PBS, pH 7.4
Enzyme: VAP-1, Manufacturer: R&D Systems
VAP-1 protein (about 20 nM) and different concentrations of the test compound were pre-incubated at room temperature for 10 minutes, followed by an addition of […] benzylamine hydrochloride, 1 U/mL HRP and 200 μM Amplex Red reagent according to the specification of the test kit to start the reaction. The reaction plate was placed in the enzyme marker, and in kinetic mode, fluorescence signals were measured at Ex/Em=540/590 nm. The relative inhibition activity of each concentration group was calculated, wherein the ratio (slope) of fluorescence signal to reaction time in the linear range is the reaction rate, the vehicle group (DMSO) is the negative control, and the reaction buffer solution group (without enzymes and the compounds) is the blank control. The half inhibition concentration (IC50) of the compound was calculated according to four-parameter model fitting curve.

Series [2] addresses T2, MAO-B (Homo sapiens, UniProt P27338).
T2 construct: purchased Sigma Aldrich
T2 sequence (P27338 1-520): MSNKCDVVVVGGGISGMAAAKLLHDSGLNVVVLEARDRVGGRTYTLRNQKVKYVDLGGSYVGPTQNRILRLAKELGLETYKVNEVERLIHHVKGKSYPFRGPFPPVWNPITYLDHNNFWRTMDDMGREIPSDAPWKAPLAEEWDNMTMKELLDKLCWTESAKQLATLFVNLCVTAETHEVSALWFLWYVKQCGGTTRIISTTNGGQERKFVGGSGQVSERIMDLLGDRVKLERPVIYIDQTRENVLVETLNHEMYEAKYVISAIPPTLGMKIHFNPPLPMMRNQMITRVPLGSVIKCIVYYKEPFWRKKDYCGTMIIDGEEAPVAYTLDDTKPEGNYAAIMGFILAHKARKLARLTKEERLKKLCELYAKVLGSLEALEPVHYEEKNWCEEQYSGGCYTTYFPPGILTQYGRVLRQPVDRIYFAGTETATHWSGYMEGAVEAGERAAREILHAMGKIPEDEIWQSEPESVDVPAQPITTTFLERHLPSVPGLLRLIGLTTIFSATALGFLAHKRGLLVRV
Put plainly: Inhibition of the enzymatic activity of MAO-B. Conditions: range of IC50 from inhibition rates at 10 μM, 1 μM and 0.1 μM; read-out: IC50, inhibition against the enzymatic activity of MAO-B. The format is biochemical. The procedure: Inhibition Experiment Against the Enzymatic Activity of MAO-B (Monoamine Oxidase Type B)
(§1) 1. Test kit: Amplex® Red Monoamine Oxidase Assay, Manufacturer: ThermoFisher
Protein: MAO-B, manufacturer: Sigma Aldrich
According to the method as described in the specification of the test kit, MAO-B protein (5 μg/ml) and different concentrations of the test compound were pre-incubated at room temperature for 10 minutes, and then 150 μM benzylamine hydrochloride, 1 U/mL HRP and 200 μM Amplex Red reagent were added to start the reaction. The relative inhibition rate of each concentration group were calculated according to the experimental method of MAO-A.
According to the above method, the inhibition of the compound against the activity of the MAO-B was measured, and the range of IC50 was obtained according to the inhibition rates at 10 μM, 1 μM and 0.1 μM.

The target in series [3] is T3, DAO (Homo sapiens, UniProt P19801).
T3 construct: purchased R&D Systems
T3 sequence (P19801 20-751): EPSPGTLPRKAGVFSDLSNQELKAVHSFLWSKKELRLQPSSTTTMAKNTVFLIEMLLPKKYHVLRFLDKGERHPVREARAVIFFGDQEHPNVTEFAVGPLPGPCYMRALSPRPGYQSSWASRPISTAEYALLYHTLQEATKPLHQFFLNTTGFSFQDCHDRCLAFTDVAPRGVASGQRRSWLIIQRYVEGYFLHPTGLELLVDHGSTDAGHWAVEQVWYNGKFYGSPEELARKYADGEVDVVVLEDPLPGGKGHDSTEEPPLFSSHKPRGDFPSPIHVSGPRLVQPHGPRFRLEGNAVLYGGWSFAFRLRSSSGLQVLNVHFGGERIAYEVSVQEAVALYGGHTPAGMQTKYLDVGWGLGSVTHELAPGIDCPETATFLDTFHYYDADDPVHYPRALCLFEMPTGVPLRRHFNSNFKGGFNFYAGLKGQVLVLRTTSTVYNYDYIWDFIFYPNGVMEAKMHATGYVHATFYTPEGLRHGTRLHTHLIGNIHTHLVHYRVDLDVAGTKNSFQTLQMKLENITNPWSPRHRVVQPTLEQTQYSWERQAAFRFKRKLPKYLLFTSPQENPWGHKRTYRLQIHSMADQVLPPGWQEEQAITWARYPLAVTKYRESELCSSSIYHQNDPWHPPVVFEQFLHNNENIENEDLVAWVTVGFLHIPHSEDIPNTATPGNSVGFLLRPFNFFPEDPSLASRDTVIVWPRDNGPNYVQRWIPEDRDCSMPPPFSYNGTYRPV
Put plainly: Inhibition of the enzymatic activity of DAO. Conditions: DAO 15 μg/ml, histamine substrate; read-out: IC50, inhibition against the enzymatic activity of DAO. The format is biochemical. The procedure:
Inhibition Experiment Against the Enzymatic Activity of DAO (Diamine Oxidase)
as §1
Protein: DAO, manufacturer: R&D Systems
DAO protein (15 μg/ml) and different concentrations of the test compound were pre-incubated at room temperature for 20 minutes, and then 100 μM Histamine-dihydrochloride, 1 U/mL HRP and 200 μM Amplex Red reagent were added to start the reaction. The inhibition rate of each concentration groups were calculated according to the experimental method of MAO-A.

Series [4] has as its target T4, MAO-A (Homo sapiens, UniProt P21397).
T4 construct: purchased Sigma Aldrich
T4 sequence (P21397 1-527): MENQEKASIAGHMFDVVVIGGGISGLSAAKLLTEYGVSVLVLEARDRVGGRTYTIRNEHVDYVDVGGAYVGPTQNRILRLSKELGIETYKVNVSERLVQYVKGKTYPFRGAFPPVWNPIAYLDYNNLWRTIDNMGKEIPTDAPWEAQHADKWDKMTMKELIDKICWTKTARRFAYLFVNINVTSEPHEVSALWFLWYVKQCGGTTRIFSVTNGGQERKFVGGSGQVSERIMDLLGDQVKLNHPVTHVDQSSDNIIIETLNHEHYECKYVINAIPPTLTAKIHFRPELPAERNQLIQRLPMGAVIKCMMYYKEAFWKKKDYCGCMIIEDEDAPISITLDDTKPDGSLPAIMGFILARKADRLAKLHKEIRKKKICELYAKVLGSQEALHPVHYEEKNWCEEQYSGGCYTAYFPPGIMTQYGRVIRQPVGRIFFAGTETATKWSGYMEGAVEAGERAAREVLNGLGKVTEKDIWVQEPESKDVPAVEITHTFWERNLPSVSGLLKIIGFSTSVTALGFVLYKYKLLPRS
The experiment in a line: Inhibition of the enzymatic activity of MAO-A. In kind it is biochemical. Conditions: range of IC50 from inhibition rates at 100 μM and 10 μM; read-out: IC50, inhibition against the enzymatic activity of MAO-A. The procedure:
Inhibition Experiment Against the Enzymatic Activity of MAO-A (Monoamine Oxidase Type A)
as §1
2. Reaction Buffer Solution: 50 mM PBS, pH 7.4
Protein: MAO-A, manufacturer: Sigma Aldrich
According to the method as described in the specification of the kit, MAO-A protein (15 μg/ml) and different concentrations of the test compound were pre-incubated at room temperature for 30 minutes, and then 200 μM p-tyramine hydrochloride, 1 U/mL HRP and 200 µM Amplex Red reagent were added to start the reaction. In kinetic mode, fluorescence signals were measured at Ex/Em=540/590 nm. The inhibition rate of each concentration group was calculated, wherein the ratio of fluorescence signal to reaction time ratio is the reaction rate, the vehicle group (DMSO) is the negative control, and the reaction buffer solution group (without enzymes and the compounds) is the blank control.
Percent inhibition rate (%)=(1-(reaction rate of each compound concentration group−reaction rate of the blank group)/(reaction rate of vehicle group−reaction rate of the blank group))*100.
According to the above method, the inhibition of the compound against the enzymatic activity of MAO-A was measured, and the range of IC50 was obtained according to the inhibition rates at 100 μM and 10 μM.

Series [5] deals with T5, hERG (Homo sapiens, UniProt Q12809).
T5 construct: purchased ThermoFisher; host or cells: hERG cell membrane supplied with the kit
T5 sequence (Q12809 whole entry): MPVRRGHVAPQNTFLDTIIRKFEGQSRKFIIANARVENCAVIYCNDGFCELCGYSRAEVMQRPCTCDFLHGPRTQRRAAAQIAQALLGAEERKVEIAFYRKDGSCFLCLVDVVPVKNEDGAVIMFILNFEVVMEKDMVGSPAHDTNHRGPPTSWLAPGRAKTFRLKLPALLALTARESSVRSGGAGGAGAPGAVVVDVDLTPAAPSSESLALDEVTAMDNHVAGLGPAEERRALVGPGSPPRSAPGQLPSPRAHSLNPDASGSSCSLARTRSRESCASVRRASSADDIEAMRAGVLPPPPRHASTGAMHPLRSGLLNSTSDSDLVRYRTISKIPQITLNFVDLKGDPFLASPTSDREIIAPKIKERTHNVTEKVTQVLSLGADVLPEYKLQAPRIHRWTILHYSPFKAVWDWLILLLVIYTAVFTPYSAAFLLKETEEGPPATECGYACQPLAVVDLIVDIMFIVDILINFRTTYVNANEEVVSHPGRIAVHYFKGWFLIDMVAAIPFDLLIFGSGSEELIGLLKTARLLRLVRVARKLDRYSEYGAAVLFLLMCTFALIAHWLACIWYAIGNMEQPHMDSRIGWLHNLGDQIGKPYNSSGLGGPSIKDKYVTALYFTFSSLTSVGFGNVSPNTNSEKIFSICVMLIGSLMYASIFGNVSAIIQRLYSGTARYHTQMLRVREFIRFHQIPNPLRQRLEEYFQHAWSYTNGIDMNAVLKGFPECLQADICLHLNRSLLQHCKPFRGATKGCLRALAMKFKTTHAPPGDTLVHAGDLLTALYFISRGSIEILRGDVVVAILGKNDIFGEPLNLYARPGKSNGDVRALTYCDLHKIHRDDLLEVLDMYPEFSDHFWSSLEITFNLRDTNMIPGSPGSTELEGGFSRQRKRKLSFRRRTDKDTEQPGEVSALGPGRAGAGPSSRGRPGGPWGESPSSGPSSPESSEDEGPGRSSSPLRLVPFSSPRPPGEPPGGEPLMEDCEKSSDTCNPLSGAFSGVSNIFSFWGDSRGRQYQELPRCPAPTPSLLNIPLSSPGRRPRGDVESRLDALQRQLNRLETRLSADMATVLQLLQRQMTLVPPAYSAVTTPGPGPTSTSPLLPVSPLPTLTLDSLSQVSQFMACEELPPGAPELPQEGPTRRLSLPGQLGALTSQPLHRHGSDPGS
The experiment in a line: hERG fluorescence polarization inhibition experiment. Conditions: human, probe tracer having high affinity to hERG (kit tracer), hERG cell membrane, 25° C. 2 hours, read-out: hERG (IC50 range, competitive binding vs tracer). The procedure: hERG (Ether-a-go-go-related Gene Potassium Channel) Inhibition Experiment
Reagent: Predictor™ hERG Fluorescence Polarization Assay Kit, Manufacturer: ThermoFisher
The above test kit was used to evaluate the potential of the compound for inducing heart QT prolongation. According to the method as indicated in the specification of the test kit, the test compound, the positive control (E4031) and negative control (Experimental buffer solution) in the kit were added to a microwell plate containing hERG cell membrane, and then a tracer having high affinity to hERG was added. The microwell plate was then incubated at 25° C. for 2 hours, a BMG PHAREStar polyfunctional enzyme marker was used to test the variations in the fluorescent polarization value. By calculating the percent inhibition rates (%) at different concentrations, the range of the half inhibition concentration (IC50) was determined:
Percent inhibition rate (%)=(1-(mP of the test compound-mP of 30 μM E4031)/(mP of experimental buffer solution-mP of 30 μM E4031))*100.
(Block of hERG is tested as a sign of cardiac risk.)

Counter-ions that a name gives are not always drawn.

On to `NC/C(=C/F)COc1ccc2c(c1)C(=O)CC2` [TM7-Z, (Z)-6-((2-aminomethyl-3-fluoroallyl)oxy)-2,3-dihydro-1-indenone trifluoroacetate], for which the IC50 in series [1] was 3.8 ± 0.4 nM; in series [2], > 10000 nM; in series [3], > 100 nM.
For `NC/C(=C/F)COc1ccc(C(=O)NC2CCOCC2)cc1` [TM76-Z, (Z)-N-(tetrahydro-2H-pyran-4-yl)-4-((2-aminomethyl-3-fluoroallyl)oxy)-benzamide trifluoroacetate], the IC50 in series [1] is 1.8 ± 0.2 nM; in series [4], > 100000 nM; in series [2], > 100 nM.
For the compound `NC/C(=C/F)COc1ccc2c(c1)CNC2=O` [TM77-Z, (Z)-5-((2-aminomethyl-3-fluoroallyl)oxy)isoindol-1-one trifluoroacetate], the IC50 in series [4] is > 100000 nM. Further, the IC50 at 2 h in series [5] is > 10000 nM.
With `NC/C(=C\F)COc1ccc(C(=O)NCc2ccccn2)cc1` [TM112-E, (E)-4-((2-aminomethyl-3-fluoroallyl)oxy)-N-(pyridin-2-ylmethyl)benzamide trifluoroacetate], the IC50 in series [1] was 3.2 ± 0.4 nM; in series [4], > 100000 nM; in series [2], > 100 nM.
As for `NC/C(=C\F)COc1ccc(C(=O)Nc2ccc3c(c2)OCCO3)cc1` [TM114-E, (E)-4-((2-aminomethyl-3-fluoroallyl)oxy)-N-(2,3-dihydrobenzo[b][1,4]dioxa-6-yl)benzamide trifluoroacetate], the IC50 in series [1] is 1.1 ± 0.2 nM; in series [4] it was > 10000 nM.
Take `NC/C(=C/F)COc1ccc(C(=O)Nc2ccc3c(c2)OCCO3)cc1` [TM114-Z, (Z)-4-((2-aminomethyl-3-fluoroallyl)oxy)-N-(2,3-dihydrobenzo[b][1,4]dioxa-6-yl)benzamide trifluoroacetate]: the values for the IC50 in series [1] and in series [4] were 0.8 ± 0.1 nM and > 10000 nM, respectively.
Regarding “(Z)-6-((2-(methylamino)-3-fluoroallyl)oxy)-2-methyl-3,4-dihydroisoquinolin-1(2H)-one trifluoroacetate [TM66-Z]”, the IC50 was 1.6 ± 0.2 nM in series [1] and > 10000 nM in series [2].
Consider “(Z)-6-((2-(methylamino)-3-fluoroallyl)oxy)-3,3-dimethyl-3,4-dihydroisoquinolin-1(2H)-one trifluoroacetate [TM38-Z]”, for which the IC50 is 2.9 ± 0.3 nM in series [1], > 10000 nM in series [2] and > 100 nM in series [3].
